Results taken from PMC8304608, “Impact of Membrane Lipids on UapA and AzgA Transporter Subcellular Localization and Activity in Aspergillus nidulans” (Journal of Fungi, 2021).

Tests used:
[1] = target: T1, UapA (Aspergillus nidulans, UniProt Q07307); test: radiolabelled uptake in germinating conidiospores; assay type: cell-based; conditions: apparent Km; wild-type lipid background; [8-3H]-xanthine 0.1 μM with unlabelled substrate 0.5-1000 μM; pH 6.8, 37 °C; labelled compound; background of strain lacking transporter subtracted; read-out: Xanthine Uptake Kinetics / Km
T1 construct: full-length in native germinating conidiospores; GFP-tagged UapA under native promoter used for localization (functionally replaces untagged); homodimer
T1 sequence (Q07307 whole entry): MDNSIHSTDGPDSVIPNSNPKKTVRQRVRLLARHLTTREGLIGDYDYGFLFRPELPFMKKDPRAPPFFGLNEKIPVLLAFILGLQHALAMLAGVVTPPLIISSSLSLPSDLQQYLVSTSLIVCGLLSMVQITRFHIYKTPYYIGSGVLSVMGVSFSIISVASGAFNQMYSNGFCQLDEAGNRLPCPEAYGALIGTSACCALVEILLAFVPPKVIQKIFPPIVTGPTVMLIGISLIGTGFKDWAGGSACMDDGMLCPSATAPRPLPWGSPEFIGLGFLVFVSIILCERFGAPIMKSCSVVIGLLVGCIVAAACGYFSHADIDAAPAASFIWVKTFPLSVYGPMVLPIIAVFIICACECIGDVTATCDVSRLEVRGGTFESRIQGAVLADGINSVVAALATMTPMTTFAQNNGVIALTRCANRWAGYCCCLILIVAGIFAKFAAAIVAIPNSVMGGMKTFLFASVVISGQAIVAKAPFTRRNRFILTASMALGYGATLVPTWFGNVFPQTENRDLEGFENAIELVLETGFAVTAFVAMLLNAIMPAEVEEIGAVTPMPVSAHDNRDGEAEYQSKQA
Excerpt: radiolabelled uptake in germinating conidiospores on UapA

[2] = substrate: Nc1ncnc2nc[nH]c12; test: radiolabelled uptake in germinating conidiospores; assay type: cell-based, Aspergillus nidulans; conditions: apparent Km, wild-type lipid background, [2,8-3H]-adenine 0.1 μM with unlabelled substrate 0.5-1000 μM, pH 6.8, 37 °C, labelled compound, background of strain lacking transporter subtracted
Excerpt: radiolabelled uptake in germinating conidiospores on AzgA

Km [1] | Molecule | Km [2]
5 ± 1 µM | O=c1[nH]c(=O)c2[nH]cnc2[nH]1 [xanthine] | –
– | AzgA (Aspergillus nidulans) (protein, full-length in native germinating conidiospores; GFP-tagged AzgA under native promoter used for localization (functionally replaces untagged)) MGYAEWIGRTNAAVARSPVGRWFRLEGSGHPRERKGAYFFTELRAGLATFFAMAYIISVNANITSDTGGTCVCPAEDLATACDNNTEYLLCKQEVNRDLVTATAAIAAIASFFLGLLANLPVALAPGMGLNAYFAYTVVGHHGTGLIPYSLAVTAVFVEGWIFLGLTLLGIRQWLARAIPASIKLATGAGIGLYLTLIGLSYSAGLGVVQGGTSSPIQLAGCASDTFGDDGLCPSSEKMRNPTMWIGIFCGGVFTVFLMMYRVKGAVIAGILLVSIISWPRPTPVTYFPHTETGDSSFDFFKKVVTFHPIQHTLVAQEWNISSNGGQFGLALITFLYVDILDATGTLYSMAKFAGAMDERTQDFEGSAMAYMVDAICISIGSLFGSPPVTAFVESGAGISEGGKTGLTSCMTGICFFIAVFFAPIFASIPPWATGSTLVIVGSMMMHATLEINWRYLGDAVPAFLTISLMPFTYSIADGLIAGILSYILINGGVWIVAKLTGGRISPPNREEEHEPWTWKIPGGFFPPWLVRAVHGKKDFWRAEDDANDLSLGVMPHGSLSSQDRAGEKLASSKEQVTEK | 3 ± 1 µM
